{
  "source": "ChEMBL document CHEMBL5107991",
  "about": "“Conversion of oxadiazolo[3,4-b]pyrazines to imidazo[4,5-b]pyrazines via a tandem reduction-cyclization sequence generates new mitochondrial uncouplers” (Bioorg Med Chem Lett, 2022)",
  "note": "Activity calls are given as the source filed them. The rule behind the calls is not given here.",
  "data": [
    {"tested_on": "not listed separately", "assay": "Induction of mitochondrial uncoupled respiration in rat L6 myoblasts assessed as increase in oxygen consumption rate measured by Agilent Seahorse XF analyzer", "assay_type": "functional, cell-based", "units": {"EC50": "µM"}, "values": [
      {"smiles": "Oc1nc2nonc2nc1Nc1ccc(OC(F)(F)F)cc1", "EC50": 4.3}
    ]},
    {"tested_on": "not listed separately", "assay": "Induction of mitochondrial uncoupled respiration in rat L6 myoblasts assessed as increase in oxygen consumption rate at 10 uM measured by Agilent Seahorse XF analyzer", "assay_type": "functional", "units": {"Activity": "%"}, "values": [
      {"smiles": "Fc1ccccc1Nc1nc2nc(C(F)(F)F)[nH]c2nc1Nc1ccccc1F", "Activity": 50},
      {"smiles": "Cn1c(C(F)(F)F)nc2nc(Nc3cc(C(F)(F)F)cc(C(F)(F)F)c3)c(Nc3cc(C(F)(F)F)cc(C(F)(F)F)c3)nc21", "Activity": 100},
      {"smiles": "Fc1cccc(Nc2nc3[nH]c(C(F)(F)F)nc3nc2Nc2ccccc2F)c1", "Activity": 100},
      {"smiles": "Fc1cccc(Nc2nc3nc(C(F)(F)F)[nH]c3nc2Nc2cccc(F)c2F)c1F", "Activity": ">150"},
      {"smiles": "Fc1ccc(C(F)(F)F)cc1Nc1nc2nc(C(F)(F)F)[nH]c2nc1Nc1cc(C(F)(F)F)ccc1F", "Activity": 100},
      {"smiles": "Fc1c(Nc2nc3nc(C(F)(F)F)[nH]c3nc2Nc2cccc(C(F)(F)F)c2F)cccc1C(F)(F)F", "Activity": ">150"},
      {"smiles": "FC(F)(F)c1nc2nc(Nc3ccccc3C(F)(F)F)c(Nc3ccccc3C(F)(F)F)nc2[nH]1", "Activity": ">150"}
    ]},
    {"tested_on": "not listed separately", "assay": "(§1) Induction of mitochondrial uncoupled respiration in rat L6 myoblasts assessed as increase in oxygen consumption rate at 50 uM measured by Agilent Seahorse XF analyzer", "assay_type": "functional", "units": {"Activity": "%"}, "values": [
      {"smiles": "Fc1ccccc1Nc1nc2nc(C(F)(F)F)[nH]c2nc1Nc1ccccc1F", "Activity": 150},
      {"smiles": "Cc1ccc(Nc2nc3[nH]c(C(F)(F)F)nc3nc2Nc2ccccc2F)cc1", "Activity": 50},
      {"smiles": "Fc1ccccc1Nc1nc2nc(C(F)(F)F)[nH]c2nc1NC1CCCCC1", "Activity": 125},
      {"smiles": "Cn1c(C(F)(F)F)nc2nc(Nc3cc(C(F)(F)F)cc(C(F)(F)F)c3)c(Nc3cc(C(F)(F)F)cc(C(F)(F)F)c3)nc21", "Activity": ">300"},
      {"smiles": "Fc1cccc(Nc2nc3[nH]c(C(F)(F)F)nc3nc2Nc2ccccc2F)c1", "Activity": 150},
      {"smiles": "Fc1ccccc1Nc1nc2nc(C(F)(F)F)[nH]c2nc1Nc1ccccc1", "Activity": 50},
      {"smiles": "FC(F)(F)c1cc(Nc2nc3nc(C(F)(F)F)[nH]c3nc2Nc2cc(C(F)(F)F)cc(C(F)(F)F)c2)cc(C(F)(F)F)c1", "Activity": 100},
      {"smiles": "Cn1c(C(F)(F)F)nc2nc(Nc3cc(C(F)(F)F)ccc3F)c(Nc3cc(C(F)(F)F)ccc3F)nc21", "Activity": ">200"}
    ]},
    {"tested_on": "L6", "assay": "as §1", "assay_type": "functional", "values": [
      {"smiles": "FC(F)(F)c1nc2nc(Nc3ccccc3)c(Nc3ccccc3)nc2[nH]1", "Activity": "Active"},
      {"smiles": "Cc1ccc(Nc2nc3nc(C(F)(F)F)[nH]c3nc2Nc2ccc(C)cc2)cc1", "Activity": "Active"}
    ]}
  ]
}
